The values below come from the METLIN SMRT retention time set (Domingo-Almenara et al. 2019).

SMILES strings stand for the structures.

A short description of the series: gradient 5% acetonitrile 3 min, to 50% in 2 min, to 85% in 15 min, held 3 min, 100 µL/min. The note with it: column: Zorbax Extend-C18 2.1 x 50 mm; eluents: water / acetonitrile, 0.1% formic acid. The method in brief:
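In both positive and negative ionization mode, a quadrupole time-of-flight mass spectrometer coupled to HPLC analyzed pure standards run in mixtures of ~100 molecules. The Zorbax Extend-C18 column (2.1 × 50 mm, 1.8 μm) was operated at 100 μL/min with water and acetonitrile, each containing 0.1% formic acid. The dead volume was 40 μL and the dwell volume 900 μL. Retention time came from adduct peaks that were computationally picked and individually inspected by hand.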
In turn, `Fc1ccc(Cc2nc3nccc(-c4ccccc4)n3n2)cc1` gave an RP-LC retention time of 890 s. In the case of `COc1cccc(NC(=O)N2CCC(n3c(-c4ccoc4)nc4cccnc43)C2)c1` (centres undefined) it was 715 s; in that of `CCNc1cc(N2CCCC(CCC(=O)N3CCOCC3)C2)ncn1` (centres undefined), 586 s; in that of `CCC1CN(C(=O)N2CCC(C(=O)NCCCN3CCOCC3)CC2)c2ccccc2O1` (centres undefined), 632 s. In the case of `Cc1cc(=O)n(Cc2ccc(OC(F)(F)F)cc2)c(Nc2ccc(F)c(F)c2)n1` it was 1300 s.

Take `Cc1ccc(NS(=O)(=O)c2ccc3c(c2)CCCC(=O)N3)cc1F`: the RP-LC retention time was determined as 763 s. In turn, `COc1ccc(-c2cc(=O)c3cc(Br)ccc3o2)cc1OC` gave an RP-LC retention time of 912 s.

As for `CCCCN1C(=O)C(NC(=O)c2cccc(OC)c2)(C(F)(F)F)C(C(=O)OC)=C1C` (centres undefined), the RP-LC retention time is 988 s.

In the case of `Cc1noc(-c2ccc(=O)n(Cc3ccccc3F)n2)n1`, the RP-LC retention time worked out at 794 s.

For the molecule `Cc1nnc(-c2ccc(Cl)cc2)nc1N1CCC(C)CC1`, the RP-LC retention time was 897 s. The molecule `Cc1ccc(CNc2ccc3nnc(C4CCC4)n3n2)o1` returned an RP-LC retention time of 883 s. The molecule `CCc1nc2cc3c(cc2n1CC(=O)N1CCOCC1)OCCO3` gave an RP-LC retention time of 567 s. In the case of `CCCCCNC(=O)C1CCN(c2cc(Sc3cc(C)ccc3C)ncn2)CC1` it was 951 s. In the case of `Fc1cccc(-c2nn3c(CSc4ccccc4)nnc3s2)c1` it was 969 s.

In turn, `CCOc1ccccc1C(=O)NCCc1csc(-c2cccnc2)n1` displayed an RP-LC retention time of 668 s. The result for `CCC(C)Sc1nnc(NC(=O)C2CCN(C(=O)c3ccccc3)CC2)s1` (centres undefined) reads 854 s; that for `Cc1ccccc1CC(=O)Nc1ccc2c(c1)Sc1ncccc1C(=O)N2C(C)C`, 912 s. In the case of `CC1CCN(S(=O)(=O)c2cccn(Cc3cc(F)cc(F)c3)c2=O)CC1` it was 974 s; in that of `NS(=O)(=O)c1ccc(CCNC(=O)c2cn3cc(Cl)ccc3n2)cc1`, 660 s. `Cc1ccc(N2CCC(NC(=O)NC3CCCC3)C2=O)cc1C` (centres undefined) showed an RP-LC retention time of 788 s. In turn, `CN(C)C(=O)CCc1ccc2c(c1)CN(C(=O)C1COc3ccccc3O1)CCO2` (centres undefined) showed an RP-LC retention time of 790 s.

In turn, `Cc1cc(C)c(S(=O)(=O)N2CCn3c(nn(CC4CC4)c3=O)C2)c(C)c1` yielded an RP-LC retention time of 870 s.

Turning to `Cc1nc(-c2cn(C(C)C)c3ncccc23)sc1C(=O)N1CCC(C)CC1`, the RP-LC retention time was found to be 999 s. Consider `CCc1nc(-c2csc(S(=O)(=O)N3CCCC(C(=O)Nc4cc(C)ccc4OC)C3)c2)no1` (centres undefined), for which the RP-LC retention time came to 1130 s. `COc1ccc(Cl)cc1NC(=O)CN1CCCC(COCc2ccccc2)C1` (centres undefined) returned an RP-LC retention time of 630 s.

Molecule `COC(=O)c1ccc2c(=O)n(-c3cccc(C)c3)c(N3CCSC3)nc2c1` displayed an RP-LC retention time of 1130 s. In the case of `COc1ccccc1CNC(=O)c1ccc2c(c1)N(C)C(=O)c1ccccc1O2` it was 862 s. In the case of `CCc1ccc(NC(=O)C2CCN(S(=O)(=O)c3cn(CC)cn3)CC2)cc1` it was 794 s.

`CCOC(=O)c1c(C)[nH]c(C(=O)N2CCC(CC(=O)NCc3ccc(OC)cc3)CC2)c1C` registered an RP-LC retention time of 694 s.

In turn, `O=c1n(Cc2ccccc2)nc2n1CCN(S(=O)(=O)Cc1ccccc1)CC2` registered an RP-LC retention time of 816 s. In the case of `CC(C)C(=O)NCc1csc(C2CCN(C(=O)COc3ccccc3)CC2)n1` it was 722 s. In the case of `COc1cc(OC)c2c(=O)cc(-c3cccnc3)oc2c1`, the RP-LC retention time stood at 733 s. For the molecule `COc1cccc(-c2nnc(Cc3nc(-c4cccc(C(F)(F)F)c4)no3)o2)c1`, the RP-LC retention time amounted to 1100 s.

With `CCc1nc2cc3c(cc2n1CC(=O)Nc1ccccc1OC)OCCO3`, the RP-LC retention time is 627 s. The result for `CCc1cccc(NC(=O)Cn2ccc3sccc3c2=O)c1` reads 800 s; that for `COc1ccc(N2CC(c3nc(-c4ccc(N(C)C)cc4)no3)CC2=O)cc1Cl` (centres undefined), 1030 s. Take `CC(=O)Nc1ccc(NC(=O)COc2cc(C)nc(-c3ccc(C(F)(F)F)cc3)n2)cc1`: the RP-LC retention time amounted to 887 s. In the case of `Cc1cc2c(c(=O)n(-c3ccccc3)c(=O)n2CC(=O)Nc2ccc(F)c(Cl)c2)n1C` it was 902 s. In the case of `O=C(NC1CCCC1)C1CCN(C(=O)c2cc(-c3ccncc3)n[nH]2)CC1` it was 582 s; in that of `CC(C)S(=O)(=O)c1ccc(CC(=O)N2CCC(c3nnc(-c4ccco4)o3)CC2)cc1`, 669 s; in that of `Cc1ccc(-n2ccc(=O)c(-c3nc(-c4cccc(Cl)c4)no3)n2)cc1`, 1030 s. The molecule `Cc1nc(NC(=O)Cn2nc3c(cc2=O)CCCCC3)sc1C` gave an RP-LC retention time of 786 s.

`COC(=O)c1cc(OCC(=O)Nc2cc(F)ccc2F)c2cc(OC)ccc2n1` came in with an RP-LC retention time of 880 s. In the case of `Cc1cc(C)cc(C(=O)N2CCC3(CC2)NC(=O)c2cc(C)ccc2N3C)c1`, the RP-LC retention time worked out at 852 s. The result for `Cc1cccc(N2C(=O)CN(Cc3ccco3)[C@H]3CS(=O)(=O)C[C@H]32)c1` reads 744 s. The result for `CCOC(=O)CNC(=O)Cn1nc2n(c(=O)c1=O)CCN2c1ccccc1` reads 626 s; that for `CCOc1ccccc1CNC(=O)c1c(C)sc2ccn(C)c(=O)c12`, 823 s. The result for `CSc1cccc(NC(=O)c2cnc(-c3ccc(C)cc3)nc2-c2ccncc2)c1` reads 1010 s; that for `O=C(Nc1ccc(Cl)cc1F)N1CCCN(C2CCN(CC3CC3)C2=O)CC1` (centres undefined), 575 s. `Cc1ccc2nc(-c3ccc(N4CCOCC4)cc3)c(Nc3ccccc3C)n2c1` yielded an RP-LC retention time of 755 s. The result for `Cc1cccc(-n2cc(C(=O)OCc3ccncc3)c3ccccc3c2=O)c1` reads 743 s; that for `O=C1COc2ccccc2N1Cc1nc(-c2ccc(Cl)c(F)c2)no1`, 1120 s; that for `O=C(Cc1ccc(NC(=O)Nc2ccccc2Cl)cc1)NCC(F)(F)F`, 696 s.

For the molecule `Cc1oc(C2CCN(S(=O)(=O)c3ccccc3F)CC2)nc1C(=O)N1CCCC1`, the RP-LC retention time is 886 s.

With `O=C(NCc1cccnc1)c1nnc(-c2ccc(S(=O)(=O)N3CCOCC3)cc2)o1`, the RP-LC retention time is 596 s.

Consider `CCCCS(=O)(=O)c1cc2c(cc1NC(=O)Cc1ccc(Cl)cc1)n(C)c(=O)n2C`, for which the RP-LC retention time was found to be 919 s.

With `CC1CC(=O)Nc2cc(S(=O)(=O)N3CCN(c4ccccn4)CC3)ccc2S1` (centres undefined), the RP-LC retention time came to 646 s. In the case of `N#Cc1ccc(C(=O)N2CCCC2c2nc(-c3ccc(F)cc3F)no2)cc1` (centres undefined) it was 921 s; in that of `COc1ccc(-c2ncc3c(=O)n(Cc4ccccc4C)c(=O)n(C)c3n2)cc1`, 679 s; in that of `COC(=O)N[C@@H](C)CNc1nccc(-c2cn(C(C)C)nc2-c2cc(Cl)cc(NS(C)(=O)=O)c2F)n1`, 792 s. Molecule `COc1cccc(OCC2c3ccsc3CCN2C(=O)CN(CC2CCCO2)C(C)=O)c1` (centres undefined) gave an RP-LC retention time of 788 s.

On to `Cc1ccc(S(=O)(=O)NC2CCN(C(=O)c3ccnn3C)CC2)cc1`, for which the RP-LC retention time worked out at 688 s. In the case of `N#CCNC(=O)C1CC(=O)N(CCc2c[nH]c3ccc(F)cc23)C1` (centres undefined) it was 661 s; in that of `O=C(Nc1nc(-c2cccc([N+](=O)[O-])c2)cs1)c1cccc(Br)c1`, 1170 s; in that of `Cc1cc(C)cc(OCC(=O)N(Cc2ccc(Br)o2)C2CCS(=O)(=O)C2)c1` (centres undefined), 966 s.

For `COc1cccc(NS(=O)(=O)c2cc(-c3[nH]ncc3C(=O)N(C)C)oc2C)c1`, the RP-LC retention time came to 668 s.

Regarding `COc1cc(NC(=O)C2CCN(S(=O)(=O)c3ccc4c(c3)NC(=O)C(C)O4)CC2)cc(OC)c1` (centres undefined), the RP-LC retention time was 811 s. `CNC(=O)C1CCCN(c2nc3ncn(CC(=O)NCc4ccc(OC)cc4)c(=O)c3s2)C1` (centres undefined) gave an RP-LC retention time of 632 s. In the case of `COC(=O)[C@@H]1Cc2c([nH]c3ccccc23)C(c2ccccc2C)N1` (some centres undefined) it was 685 s.

The molecule `CCOC(=O)c1[nH]c(C)c(CCC(=O)N2CCC(C(=O)NCCN3CCN(CC)CC3)CC2)c1C` returned an RP-LC retention time of 577 s. On to `CCc1c(C(=O)O)nnn1Cc1ccccc1C`, for which the RP-LC retention time was 728 s.

Turning to `CC(C)(C)c1ccc2c(c1)N(S(=O)(=O)c1ccccc1)CC(C(=O)NC1CC1)O2` (centres undefined), the RP-LC retention time came to 1080 s. In the case of `COc1ccc(OCc2noc(CNC(=O)Nc3ccccc3F)n2)cc1` it was 804 s; in that of `COc1ccccc1-c1csc(NC(=O)c2sc(C)nc2C)n1`, 900 s; in that of `O=S(=O)(c1ccccc1Cl)N1CCN(c2ccc3nnc(-c4ccco4)n3n2)CC1`, 726 s. `O=C(Cc1ccc(F)cc1)NC1CCN(c2cc(-c3cccs3)[nH]n2)C1` (centres undefined) registered an RP-LC retention time of 707 s. In the case of `CCOC(=O)c1noc2ncnc(Nc3ccccc3CC)c12` it was 948 s. `Cc1cc(-c2nnc(-c3ccccc3)o2)c(C)n1CC(=O)Nc1cccc(Cl)c1` showed an RP-LC retention time of 1030 s.

As to `O=c1c2cc3c(cc2nc(SCc2nc(-c4ccc(F)cc4)no2)n1Cc1ccccc1)OCO3`, the RP-LC retention time came out at 1200 s.
